Measurements published in publication PMC7041945, “Misfolded proteins bind and activate death receptor 5 to trigger apoptosis during unresolved endoplasmic reticulum stress” (eLife, 2020).

Columns and labels:
[1] = system: CHOP, BiP, and DR5 mRNA in HCT116 cells; experiment: qPCR of UPR target transcripts (CHOP, BiP, DR5); format: cell-based, Homo sapiens; settings: for fold induction CHOP / fold induction DR5 total: 24 hr, Rep 2, vs 24 hr cytoGFP (empty traffo)
Description: Cells were grown in 6-well plates and harvested with 0.5 ml of TRIzol reagent (Life Technologies) per manufacturer’s protocol to extract RNA. For cDNA synthesis, 500 ng of total RNA was reverse transcribed with 2 μl of the SuperScript VILO master mix (Life Technologies # 11755050) in a total reaction volume of 10 μl following the manufacturer’s protocol for reaction temperature and duration. The reverse transcription product was diluted to 200 μl with 10 mM Tris-HCl pH 8.2 and used at 1:100 dilution for subsequent RT-PCR reactions.
PCR samples were prepared as described by manufacturer’s protocols from iQ SYBR Green Supermix (BioRad #17088800).
For each experiment, qRT-PCR reactions were set up in triplicate and run using a CFX96 Real Time System (Bio-Rad). Quantitation cycles were determined with CFX Manager 3.0 software (Bio-Rad) and then normalized to GAPDH as an internal control.

GAPDH = experiment: qPCR of GAPDH (reference transcript); format: cell-based; settings: Rep 2; for avg. fold induction GAPDH / fold induction GAPDH: vs 24 hr cytoGFP (empty traffo)
[2] = Compiled Reps INS RHO, average of 6 reps

Substance: RHO-GFP: GFP-tagged rhodopsin expressed from plasmid
- fold induction CHOP ([1]; replicate 2): 1.831
- fold induction DR5 total ([1]; replicate 2): 1.441
- fold induction CHOP ([1]; replicate 3): 1.789
- fold induction DR5 total ([1]; replicate 3): 1.277
- BiP avg fold change relative to empty ([1]; Compiled Reps INS RHO, average of 3 reps): 1.525
- CHOP avg fold change relative to empty [1, 2]: 1.961
- DR5 avg fold change relative to empty [1, 2]: 1.368
- GAPDH avg fold change relative to empty [1, 2]: 1.006
- GFP construct avg fold change relative to empty [1, 2]: 63.7569
- BiP fold change relative to empty ([1]; Compiled Reps INS RHO, rep 1): 1.759
- CHOP fold change relative to empty ([1]; Compiled Reps INS RHO, rep 1): 2.318
- DR5 fold change relative to empty ([1]; Compiled Reps INS RHO, rep 1): 1.2854
- GAPDH fold change relative to empty ([1]; Compiled Reps INS RHO, rep 1): 0.9696
- GFP construct fold change relative to empty ([1]; Compiled Reps INS RHO, rep 1): 45.8961
- BiP fold change relative to empty ([1]; Compiled Reps INS RHO, rep 2): 1.438
- CHOP fold change relative to empty ([1]; Compiled Reps INS RHO, rep 2): 1.9687
- DR5 fold change relative to empty ([1]; Compiled Reps INS RHO, rep 2): 1.492
- GAPDH fold change relative to empty ([1]; Compiled Reps INS RHO, rep 2): 1.117
- GFP construct fold change relative to empty ([1]; Compiled Reps INS RHO, rep 2): 55.1085
- BiP fold change relative to empty ([1]; Compiled Reps INS RHO, rep 3): 1.377
- CHOP fold change relative to empty ([1]; Compiled Reps INS RHO, rep 3): 1.972
- DR5 fold change relative to empty ([1]; Compiled Reps INS RHO, rep 3): 1.23
- GAPDH fold change relative to empty ([1]; Compiled Reps INS RHO, rep 3): 0.9232
- GFP construct fold change relative to empty ([1]; Compiled Reps INS RHO, rep 3): 65.8656
- CHOP fold change relative to empty ([1]; Compiled Reps INS RHO, rep 4): 1.892
- DR5 fold change relative to empty ([1]; Compiled Reps INS RHO, rep 4): 1.485
- GAPDH fold change relative to empty ([1]; Compiled Reps INS RHO, rep 4): 0.8039
- GFP construct fold change relative to empty ([1]; Compiled Reps INS RHO, rep 4): 62.5314
- CHOP fold change relative to empty ([1]; Compiled Reps INS RHO, rep 5): 1.831
- DR5 fold change relative to empty ([1]; Compiled Reps INS RHO, rep 5): 1.441
- GAPDH fold change relative to empty ([1]; Compiled Reps INS RHO, rep 5): 1.063
- GFP construct fold change relative to empty ([1]; Compiled Reps INS RHO, rep 5): 61.8163
- CHOP fold change relative to empty ([1]; Compiled Reps INS RHO, rep 6): 1.789
- DR5 fold change relative to empty ([1]; Compiled Reps INS RHO, rep 6): 1.277
- GAPDH fold change relative to empty ([1]; Compiled Reps INS RHO, rep 6): 1.16
- GFP construct fold change relative to empty ([1]; Compiled Reps INS RHO, rep 6): 91.3236
- UPR target gene transcription ([1]; HCT116, transfected 24 hr): upregulated BiP and CHOP mRNAs
- Cq GAPDH (GAPDH; 3 hr, mean of 3 replicates): 19.7379
- 2^-(deltaCq) GAPDH (GAPDH; 3 hr, replicate 1): 0.8551
- Cq GAPDH (GAPDH; 3 hr, replicate 1): 19.9638
- Cq(sample) - avg Cq(GAPDH), GAPDH (GAPDH; 3 hr, replicate 1): 0.2259
- 2^-(deltaCq) GAPDH (GAPDH; 3 hr, replicate 2): 1.128
- Cq GAPDH (GAPDH; 3 hr, replicate 2): 19.5639
- Cq(sample) - avg Cq(GAPDH), GAPDH (GAPDH; 3 hr, replicate 2): -0.174
- 2^-(deltaCq) GAPDH (GAPDH; 3 hr, replicate 3): 1.0366
- Cq GAPDH (GAPDH; 3 hr, replicate 3): 19.686
- Cq(sample) - avg Cq(GAPDH), GAPDH (GAPDH; 3 hr, replicate 3): -0.05187
- avg. fold induction GAPDH (GAPDH; 3 hr, mean of 3 replicates): 1.004
- fold induction GAPDH (GAPDH; 3 hr, replicate 1): 0.8525
- fold induction GAPDH (GAPDH; 3 hr, replicate 2): 1.125
- fold induction GAPDH (GAPDH; 3 hr, replicate 3): 1.034
- Cq GAPDH (GAPDH; 7 hr, mean of 3 replicates): 19.658
- 2^-(deltaCq) GAPDH (GAPDH; 7 hr, replicate 1): 0.7732
- Cq GAPDH (GAPDH; 7 hr, replicate 1): 20.029
- Cq(sample) - avg Cq(GAPDH), GAPDH (GAPDH; 7 hr, replicate 1): 0.371
- 2^-(deltaCq) GAPDH (GAPDH; 7 hr, replicate 2): 1.046
- Cq GAPDH (GAPDH; 7 hr, replicate 2): 19.5931
- Cq(sample) - avg Cq(GAPDH), GAPDH (GAPDH; 7 hr, replicate 2): -0.06483
- 2^-(deltaCq) GAPDH (GAPDH; 7 hr, replicate 3): 1.236
- Cq GAPDH (GAPDH; 7 hr, replicate 3): 19.3518
- Cq(sample) - avg Cq(GAPDH), GAPDH (GAPDH; 7 hr, replicate 3): -0.3062
- avg. fold induction GAPDH (GAPDH; 7 hr, mean of 3 replicates): 1.016
- fold induction GAPDH (GAPDH; 7 hr, replicate 1): 0.7709
- fold induction GAPDH (GAPDH; 7 hr, replicate 2): 1.043
- fold induction GAPDH (GAPDH; 7 hr, replicate 3): 1.233
- Cq GAPDH (GAPDH; 24 hr, mean of 3 replicates): 19.018
- 2^-(deltaCq) GAPDH (GAPDH; 24 hr, replicate 1): 0.8063
- Cq GAPDH (GAPDH; 24 hr, replicate 1): 19.3286
- Cq(sample) - avg Cq(GAPDH), GAPDH (GAPDH; 24 hr, replicate 1): 0.3107
- 2^-(deltaCq) GAPDH (GAPDH; 24 hr, replicate 2): 1.066
- Cq GAPDH (GAPDH; 24 hr, replicate 2): 18.9252
- Cq(sample) - avg Cq(GAPDH), GAPDH (GAPDH; 24 hr, replicate 2): -0.09277
- 2^-(deltaCq) GAPDH (GAPDH; 24 hr, replicate 3): 1.163
- Cq GAPDH (GAPDH; 24 hr, replicate 3): 18.8001
- Cq(sample) - avg Cq(GAPDH), GAPDH (GAPDH; 24 hr, replicate 3): -0.2179
- avg. fold induction GAPDH (GAPDH; 24 hr, mean of 3 replicates): 1.009
- fold induction GAPDH (GAPDH; 24 hr, replicate 1): 0.8039
- fold induction GAPDH (GAPDH; 24 hr, replicate 2): 1.063
- fold induction GAPDH (GAPDH; 24 hr, replicate 3): 1.16
